Broadly, the Ki is the dissociation constant of the complex between target and ligand, obtained from inhibition or displacement.

In this assay the target is T1, OX2R (Homo sapiens, UniProt O43614).
T1 construct: expressed in transfected cells; host or cells: CHO cells (membranes)
T1 sequence (O43614 1-444): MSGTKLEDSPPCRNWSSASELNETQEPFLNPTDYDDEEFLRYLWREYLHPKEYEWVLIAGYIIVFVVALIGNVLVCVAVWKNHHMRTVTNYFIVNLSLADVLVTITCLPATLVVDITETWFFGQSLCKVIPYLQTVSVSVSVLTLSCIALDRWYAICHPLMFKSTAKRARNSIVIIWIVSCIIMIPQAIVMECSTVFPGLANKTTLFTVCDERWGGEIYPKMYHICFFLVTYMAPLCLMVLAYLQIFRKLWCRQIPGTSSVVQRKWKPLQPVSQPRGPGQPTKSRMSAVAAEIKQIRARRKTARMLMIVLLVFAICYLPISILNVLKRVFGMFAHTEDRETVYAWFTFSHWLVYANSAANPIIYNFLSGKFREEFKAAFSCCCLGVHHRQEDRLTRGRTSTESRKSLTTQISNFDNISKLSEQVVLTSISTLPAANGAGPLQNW
In words: radioligand binding assay, membranes from CHO cells expressing OX2 receptor. The conditions noted are these: CHO cell membranes. The method, then:
The utility of the compounds in accordance with the present invention as orexin receptor OX1R and/or OX2R antagonists may be readily determined without undue experimentation by methodology well known in the art, including the “FLIPR Ca^2+ Flux Assay” (Okumura et al., Biochem. Biophys. Res. Comm. 280:976-981, 2001). In a typical experiment the OX1 and OX2 receptor antagonistic activity of the compounds of the present invention was determined in accordance with the following experimental method. For intracellular calcium measurements, Chinese hamster ovary (CHO) cells expressing the rat orexin-1 receptor or the human orexin-2 receptor, are grown in Iscove's modified DMEM containing 2 mM L-glutamine, […], 1% hypoxanthine-thymidine supplement, 100 U/ml penicillin, 100 ug/ml streptomycin and 10% heat-inactivated fetal calf serum (FCS). The cells are seeded at 20,000 cells/well into Becton-Dickinson black 384-well clear bottom sterile plates coated with poly-D-lysine. All reagents were from GIBCO-Invitrogen Corp. The seeded plates are incubated overnight at 37° C. and 5% CO2. […] Within the Fluorescent Imaging Plate Reader (FLIPR, Molecular Devices), test compounds are added to the plate in a volume of 25 ul, incubated for 5 min and finally 25 ul of agonist is added. Fluorescence is measured for each well at 1 second intervals for 5 minutes and the height of each fluorescence peak is compared to the height of the fluorescence peak induced by 70 pM Ala-6,12 orexin-A with buffer in place of antagonist. […] Alternatively, compound potency can be assessed by a radioligand binding assay (described in Bergman et. al. Bioorg. Med. Chem. Lett. 2008, 18, 1425-1430) in which the inhibition constant (Ki) is determined in membranes prepared from CHO cells expressing either the OX1 or OX2 receptor. The intrinsic orexin receptor antagonist activity of a compound which may be used in the present invention may be determined by these assays.
For `COc1ccc(CNC(=O)c2nc(-c3cncc(C)c3)cnc2-c2ccccc2)nc1OC` [1-5, N-[(5,6-dimethoxypyridin-2-yl)methyl]-6-(5-methylpyridin-3-yl)-3-phenylpyrazine-2-carboxamide], the Ki stood at 1.4 nM.

As to `COc1ccc(CNC(=O)c2nc(-c3cncc(Cl)c3)cnc2-c2ccccc2F)nc1OC` [1-9, 6-(5-chloropyridin-3-yl)-N-[(5,6-dimethoxypyridin-2-yl)methyl]-3-(2-fluorophenyl)pyrazine-2-carboxamide], the Ki stood at 3.9 nM.

Turning to `COc1ccc(CNC(=O)c2nc(-c3cc(C)cc(C)c3)cnc2N2CCOCC2)nc1OC` [2-5, N-[(5,6-dimethoxypyridin-2-yl)methyl]-6-(3,5-dimethylphenyl)-3-(morpholin-4-yl)pyrazine-2-carboxamide], the Ki turned out to be 33 nM.

The values above are taken from US20120065205A1, “PYRAZINE CARBOXAMIDE OREXIN RECEPTOR ANTAGONISTS” (priority 2009, published 2012).
